Publication PMC6221957, “Phenol Derivatives From the Sponge-Derived Fungus Didymellaceae sp. SCSIO F46” (Frontiers in Chemistry, 2018)

Experiments:
[1] = Cytotoxicity assay (CCK-8), HeLa; type: cell-based; conditions: human; HeLa cells, CCK-8, 72 h; read-out: Cytotoxic results IC50, HeLa
Description: (§1) Cytotoxic activities of the isolated compounds 1–17 and trichostatin A (TSA, positive control) against 10 tumor cell lines (K562, MCF-7, A549, Huh-7, H1975, HeLa, HL7702, HL60, MOLT-4, and DU145) were tested. […]. Cytotoxicity was assayed with the CCK-8 (Dojindo, Japan) method. 10 Cell lines K562, MCF-7, A549, Huh-7, H1975, Hela, HL7702, HL60, MOLT-4, and DU145 were purchased from Shanghai Cell Bank, Chinese Academy of Sciences. Cells were routinely grown and maintained in RPMI or DMEM media with 10% fetal bovine serum and with 1% penicillin/streptomycin. All cell lines were incubated in a Thermo/ Forma Scientific CO2 water-jacketed incubator with 5% CO2 in air at 37 °C. A cell viability assay was determined with the CCK-8 (Dojindo, Japan) assay. Cells were seeded at a density of 400−800 cells/well in 384-well plates and treated with various concentrations of compounds or solvent control. After 72 h incubation, CCK-8 reagent was added, and absorbance was measured at 450 nm using an Envision 2104 multilabel reader (PerkinElmer, USA). Dose−response curves were plotted to determine the IC50 values using Prism 5.0 (GraphPad Software Inc., USA).

[2] = Cytotoxicity assay (CCK-8), MCF-7; type: cell-based; conditions: human; MCF-7 cells, CCK-8, 72 h; read-out: Cytotoxic results IC50, MCF-7
Description: as §1

[3] = Cytotoxicity assay (CCK-8), Huh-7; type: cell-based; conditions: human; Huh-7 cells, CCK-8, 72 h; read-out: Cytotoxic results IC50, Huh-7
Description: as §1

[4] = Cytotoxicity assay (CCK-8), HL7702; type: cell-based; conditions: human; HL7702 cells, CCK-8, 72 h; read-out: Cytotoxic results IC50, HL7702
Description: as §1

[5] = Cytotoxicity assay (CCK-8), DU145; type: cell-based; conditions: human; DU145 cells, CCK-8, 72 h; read-out: Cytotoxic results IC50, DU145
Description: as §1

[6] = Cytotoxicity assay (CCK-8), K562; type: cell-based; conditions: human; K562 cells, CCK-8, 72 h; read-out: Cytotoxic results IC50, K562
Description: as §1

[7] = Cytotoxicity assay (CCK-8), A549; type: cell-based; conditions: human; A549 cells, CCK-8, 72 h; read-out: Cytotoxic results IC50, A549
Description: as §1

[8] = Cytotoxicity assay (CCK-8), MOLT-4; type: cell-based; conditions: human; MOLT-4 cells, CCK-8, 72 h; read-out: Cytotoxic results IC50, MOLT-4
Description: as §1

[9] = test system: 10 tumor cell lines (K562, MCF-7, A549, Huh-7, H1975, HeLa, HL7702, HL60, MOLT-4, and DU145); test: Cytotoxicity against the panel of 10 tumor cell lines (summary statements); type: cell-based
Description: as §1

[10] = as above; type: cell-based; conditions: human
Description: as §1

[11] = Cytotoxicity assay (CCK-8), H1975; type: cell-based; conditions: human; H1975 cells, CCK-8, 72 h; read-out: Cytotoxic results IC50, H1975
Description: as §1

[12] = Cytotoxicity assay (CCK-8), HL60; type: cell-based; conditions: human; HL60 cells, CCK-8, 72 h; read-out: Cytotoxic results IC50, HL60
Description: as §1

[13] = target: T1, COX-2 (Ovis aries, UniProt P79208); test: COX-2 inhibitory activity assay (COX (ovine) inhibitor screening kit); type: biochemical; conditions: enzyme immunoassay
T1 construct: purchased
T1 sequence (P79208 17-603): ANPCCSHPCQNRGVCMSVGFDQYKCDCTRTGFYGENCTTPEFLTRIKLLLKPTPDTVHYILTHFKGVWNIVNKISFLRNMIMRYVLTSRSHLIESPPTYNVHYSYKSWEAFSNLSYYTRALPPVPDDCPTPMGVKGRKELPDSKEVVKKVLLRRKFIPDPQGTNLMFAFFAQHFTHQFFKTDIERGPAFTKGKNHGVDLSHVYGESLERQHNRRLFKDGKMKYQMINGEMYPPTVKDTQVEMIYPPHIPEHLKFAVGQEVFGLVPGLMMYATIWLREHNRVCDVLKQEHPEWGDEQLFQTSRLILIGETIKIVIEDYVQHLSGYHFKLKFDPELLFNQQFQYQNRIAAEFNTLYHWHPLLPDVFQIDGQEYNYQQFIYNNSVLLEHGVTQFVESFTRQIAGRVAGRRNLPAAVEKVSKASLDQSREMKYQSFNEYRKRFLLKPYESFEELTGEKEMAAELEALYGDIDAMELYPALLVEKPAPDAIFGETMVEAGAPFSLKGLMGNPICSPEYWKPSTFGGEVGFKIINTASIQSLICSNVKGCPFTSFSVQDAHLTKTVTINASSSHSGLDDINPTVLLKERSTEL
Description: According to the manufacturer's instructions. The test compounds were dissolved in DMSO and the final concentration was set as 10 μM.
The COX-2 enzyme is a well-established target for anti-inflammatory evaluation. […] The COX-2 enzyme catalyses the biosynthesis of PGH2 from arachidonic acid. In this assay, the PGF2a produced by the reduction of PGH2 with stannous chloride (SnCl2) was measured in this enzyme immunoassay. The stock solutions were prepared in dimethyl sulfoxide, and the final concentration was set as 10 mM for the isolated compounds. The percentage inhibition was calculated by comparison with control incubations.

[14] = test system: HeLa; test: Cytotoxicity assay (CCK-8), HeLa; type: cell-based; conditions: HeLa cells, CCK-8, 72 h; read-out: Cytotoxic results IC50, HeLa
Description: as §1

[15] = test system: MCF-7; test: Cytotoxicity assay (CCK-8), MCF-7; type: cell-based; conditions: MCF-7 cells, CCK-8, 72 h; read-out: Cytotoxic results IC50, MCF-7
Description: as §1

[16] = test system: Huh-7; test: Cytotoxicity assay (CCK-8), Huh-7; type: cell-based; conditions: Huh-7 cells, CCK-8, 72 h; read-out: Cytotoxic results IC50, Huh-7
Description: as §1

[17] = test system: HL7702; test: Cytotoxicity assay (CCK-8), HL7702; type: cell-based; conditions: HL7702 cells, CCK-8, 72 h; read-out: Cytotoxic results IC50, HL7702
Description: as §1

[18] = test system: DU145; test: Cytotoxicity assay (CCK-8), DU145; type: cell-based; conditions: DU145 cells, CCK-8, 72 h; read-out: Cytotoxic results IC50, DU145
Description: as §1

[19] = test system: K562; test: Cytotoxicity assay (CCK-8), K562; type: cell-based; conditions: K562 cells, CCK-8, 72 h; read-out: Cytotoxic results IC50, K562
Description: as §1

[20] = test system: A549; test: Cytotoxicity assay (CCK-8), A549; type: cell-based; conditions: A549 cells, CCK-8, 72 h; read-out: Cytotoxic results IC50, A549
Description: as §1

[21] = test system: MOLT-4; test: Cytotoxicity assay (CCK-8), MOLT-4; type: cell-based; conditions: MOLT-4 cells, CCK-8, 72 h; read-out: Cytotoxic results IC50, MOLT-4
Description: as §1

[22] = test system: H1975; test: Cytotoxicity assay (CCK-8), H1975; type: cell-based; conditions: H1975 cells, CCK-8, 72 h; read-out: Cytotoxic results IC50, H1975
Description: as §1

[23] = test system: HL60; test: Cytotoxicity assay (CCK-8), HL60; type: cell-based; conditions: HL60 cells, CCK-8, 72 h; read-out: Cytotoxic results IC50, HL60
Description: as §1

| Structure (SMILES) | IC50 at 72 h [1] [µM] | IC50 at 72 h [2] [µM] | IC50 at 72 h [3] [µM] | IC50 at 72 h [4] [µM] | IC50 at 72 h [5] [µM] | IC50 at 72 h [6] [µM] | IC50 at 72 h [7] [µM] | IC50 at 72 h [8] [µM] | IC50 at 72 h [11] [µM] | IC50 at 72 h [12] [µM] | further results |
| --- | --- | --- | --- | --- | --- | --- | --- | --- | --- | --- | --- |
| COC(=O)c1c(C)cc(O)cc1Oc1cc(C)cc(O)c1 [Compound 3, Diorcinol L] | 7.1 | 10.5 | 5.7 | 68.2 | 9.1 | 43.5 | 17.7 | > 200 | 15.3 | 9.6 | Activities against other five cell lines (in words) ([9]; cell lines other than Huh-7, HeLa, DU145 and HL60): weak activities; IC50 at 72 h ([10]; range over Huh-7, HeLa, DU145 and HL60 cells, read-out: Cytotoxicities IC50 values against Huh-7, HeLa, DU145 and HL60 cells): 5.7 to 9.6 µM; IC50 at 72 h ([10]; range over the tumor cell lines of Table 3, read-out: Cytotoxicities IC50 values in the range over the cell lines): 5.7 to 68.2 µM |
| Cc1cc(O)c(O)c2oc3c(C(=O)O)cc(O)cc3c12 [Compound 6, Porric acid E] | – | – | – | – | – | – | – | – | – | – | IC50 [13]: 3.3 µM |
| Cc1cc(CO)c2c(=O)c3c(O)cccc3oc2c1 [Compound 8, 1-Hydroxy-6-methyl-8-hydroxy-methylxanthone] | 14.3 | 141 | 122 | 33.8 | > 200 | > 200 | 128 | > 200 | > 200 | > 200 | Cytotoxicities against HeLa and HL7702 cells (in words) ([9]; HeLa and HL7702 cells): weak selective cytotoxicities |
| CC(/C=C/C(=O)NO)=C\[C@@H](C)C(=O)c1ccc(N(C)C)cc1 [TSA, trichostatin A, reference compound] | – | – | – | – | – | – | – | – | – | – | IC50 [14]: 0.08 µM; IC50 [15]: 0.7 µM; IC50 [16]: 0.08 µM; IC50 [17]: 0.09 µM; IC50 [18]: 0.04 µM; IC50 [19]: 0.1 µM; IC50 [20]: 0.3 µM; IC50 [21]: 0.03 µM; IC50 [22]: 0.09 µM; IC50 [23]: 0.04 µM |
